Laboratory results reported in patent US11464726B2, “1,4: 3,6 dianhydrohexitols for moisturising the skin” (ROQUETTE FRERES, priority 2017, dated 2022).

Tested on: surface layers of the skin (superficial stratum corneum)
Assay: Moisturizing efficiency of gel evaluated by corneometry
Assay type: in vivo, human
Settings: for mean hydration value (Corneometer capacitance): gel 6% by weight + 1% carbomer, around 2 mg/cm^2, inner forearm, ten volunteers; for Mean variations in % of hydration: (T…h-T0)/T0*100, gel 6% by weight
Method: For this, these polyols were incorporated into a cosmetic preparation for topical use in gel form. […] The placebo consists only of 1% by weight of gelling carbomer in water. The moisturizing efficiency of each of the preparations for topical use was evaluated by corneometry. Corneometry is a scientifically recognized method for measuring the hydration of the surface layers of the skin. It is based on the determination of the capacitance of the superficial stratum corneum. The study was carried out with ten healthy volunteers aged from 18 to 65 years old. The moisturizing efficiency of each of the five formulae was evaluated 1 hour, 2 hours and 4 hours after its application in the laboratory on the inner face of the forearm. […] For each formula, an amount of around 2 mg/cm^2 was applied to an area of 3×3 cm, in non-occlusive epicutaneous mode. In addition to the zones treated with the five formulae, two additional zones were evaluated: one treated with a placebo and the other without treatment for the duration of the study. The measurements were carried out with a Corneometer® CM285 included in a Multiprobe Adapter System MPA® (Courage-Khazaka GmbH, Germany). The instrument determines the capacitance of the epidermis, which is proportional to the water content thereof, at a depth of around 15 μm. This method is based on the difference between the electrical permittivity of the water which is 81 and that of other substances (<7). The probe of the Corneometer (surface area of 49 mm^2) is positioned perpendicular to the test area which was delimited beforehand with a pencil. The measurement of the capacitance lasts 1 second. Each measurement is carried out twice and the average of the two measurements is noted. The instrument gives the values in arbitrary units ranging from 0 to 130, with an error margin of ±3%. Each volunteer rested for around 1 minute in an air-conditioned room before each measurement with the Corneometer® in order to avoid abnormal results due to excessive perspiration or stress. Table 2 below reports the mean hydration values expressed in arbitrary units (AU).

| SMILES | mean hydration value (Corneometer capacitance) (T0, before application) [AU] | mean hydration value (Corneometer capacitance) (T1 h after application) [AU] | Mean variations in % of hydration (T1 h vs T0) [%] | mean hydration value (Corneometer capacitance) (T2 h after application) [AU] | Mean variations in % of hydration (T2 h vs T0) [%] | mean hydration value (Corneometer capacitance) (T4 h after application) [AU] | Mean variations in % of hydration (T4 h vs T0) [%] | moisturizing power given to the gel (in words, short-term hydration and maintenance over time (T4h vs T0)) |
| --- | --- | --- | --- | --- | --- | --- | --- | --- |
| OC[C@@H](O)[C@@H](O)[C@H](O)[C@@H](O)CO [Sorbitol] | 48.60 | 54.16 | 11.4 | 49.11 | 1.0 | 46.91 | −3.5 | – |
| OC[C@@H](O)[C@H](O)[C@@H](O)CO [Xylitol] | 45.94 | 55.37 | 20.5 | 52.68 | 14.7 | 45.28 | −1.4 | – |
| OCC(O)CO [Glycerol] | 42.03 | 57.05 | 35.7 | 56.15 | 33.6 | 56.57 | 34.6 | – |
| O[C@@H]1CO[C@H]2[C@@H]1OC[C@@H]2O [Isosorbide, 1,4:3,6-dianhydrosorbitol] | 46.54 | 56.60 | 21.6 | 52.88 | 13.6 | 52.50 | 12.8 | satisfactory moisturizing power, comparable to that of betaine |
| C[N+](C)(C)CC(=O)O [Betaine] | 43.39 | 55.61 | 28.2 | 54.30 | 25.1 | 50.74 | 16.9 | – |
